# Source: PMC12344774, “Ferrocenyl Quinoline-Benzimidazole Hybrids: A Multistage Strategy to Combat Drug-Resistant Malaria” (Inorganic Chemistry, 2025)
# What was measured:
# [1] = Hydroxyl radical (ROS) generation with H2O2, DCFH2 fluorescent probe; settings: 200 μM in 1:4 DMSO/PBS, H2O2 and H2DCF added, 30 min
# Text: Fluorogenic redox-sensitive probes are often employed to measure the presence of ROS, due to their low cost, ease of use, and nontoxicity, allowing for spectrofluorimetric measurements. 2′,7′-Dichlorodihydrofluorescein diacetate (DCFH2-DA) is the most widely used fluorogenic probe. Cleavage of the acetate groups, through alkaline hydrolysis, generates 2′,7′-dichlorodihydrofluorescein (DCFH2), which in the presence of oxidants, yields the highly fluorescent 2′,7′-dichlorofluorescein (DCF, λem = 523 nm). The DCFH2 probe reacts with an array of oxidants, making it an ideal indicator of general oxidative stress. […] The presence of these radicals was confirmed by monitoring the fluorescence over time (Figure ). […].
# Stock solutions of DCFH2-DA were prepared to 1 mM in 100% DMSO and stored at −20 °C in the dark until use. The deacetylation of DCFH2-DA involved adding 2 μL of a 0.5 M NaOH solution to 200 μL of the 1 mM DCFH2-DA stock solution. The solution was mixed for 30 min, in the dark, at room temperature and then quenched with 800 μL of PBS buffer to obtain a 200 μM H2DCF 1:4 DMSO/PBS solution mixture.
# […]. The fluorometer was blanked using a 1:4 DMSO/PBS solution mixture. To identify hydroxyl radical production, 2 μL of a 0.5% H2O2 solution was added to 900 μL of the 200 μM complex solution in a cuvette at 25 °C. 100 μL of the prepared H2DCF solution (200 μM) was quickly added, and the readings recorded at 530 nm (emission wavelength), at 2 min intervals, over 30 min.
# [2] = Cyclic voltammetry of the ferrocene/ferrocenium couple; type: physicochemical
# Protocol: It has been proposed that the oxidation of ferrocene (Fe(C5H5)2) to the ferrocenium cation (Fe(C5H5)2 ^+) is a reversible one-electron transfer process. […] This prompted the investigation into the electrochemical properties of the Fe(C5H5)2/Fe(C5H5)2 ^+ couple in complexes C1–C5, using cyclic voltammetry. FQ was used as the reference, as it is considered the benchmark for all newly developed ferrocenyl-based antiplasmodials.
# Nuclear magnetic resonance (NMR) spectra were recorded on a Bruker XR600 MHz spectrometer (^1H at 599.95 MHz and ^13C{^1H} at 151.0 MHz), a Bruker […] (^1H at 400.22 MHz and ^13C{^1H} at 100.65 MHz), or a Varian Mercury 300 (^1H at 300.08 MHz) spectrometer. These were equipped with a Bruker Biospin GmbH casing and sample injector at 30 °C and tetramethylsilane (TMS) was used as the internal standard. Coupling constants are reported in Hz and chemical shifts are reported in ppm relative to residual solvent signals. Infrared (IR) spectroscopy was performed on a PerkinElmer Spectrum 100 FT-IR spectrometer, using attenuated total reflectance (ATR), with vibrations measured in units of cm^–1. Cyclic voltammetric measurements were carried out at ambient temperature under an inert argon atmosphere using a three-electrode system on a BASi Epsilon Eclipse potentiostat/galvanostat electrochemical workstation. The C-3 cell stand, equipped with a glassy carbon working electrode, Ag/AgCl (saturated NaCl) reference electrode, and a Pt wire auxiliary electrode were used to carry out electrochemical measurements. All experiments were carried out in anhydrous dichloromethane containing 0.10 M tetra-n-butylammonium perchlorate (TBAP) as the supporting electrolyte.
# K1 = settings: MDR K1; footnote e: Results from ref (number not given); read-out: PfK1 IC50 ± SEM; cited from earlier work
# NF54 = settings: drug-sensitive NF54; footnote e: Results from ref (number not given); read-out: PfNF54 IC50 ± SEM; cited from earlier work
# [3] = scan rate 100 mV/s, CH2Cl2, 0.1 M TBAP
# [4] = vs Ag/AgCl, scan rate 100 mV/s, CH2Cl2, 0.1 M TBAP
compound,measurement,setting,value
"CN(C)Cc1ccc[c-]1CNc1ccnc2cc(Cl)ccc12.[Fe+2].c1cc[cH-]c1 (stereo not drawn) [FQ, ferroquine, reference compound]",Hydroxyl radical generation (fluorescence intensity over time),[1],generate hydroxyl radicals
same,Reversibility of the ferrocene/ferrocenium couple,[2]; DCM/0.1 M TBAP system,chemically and electrochemically reversible
same,Ipc/Ipa,[2]; [3],1.00
same,ΔE,[2]; [3],0.125 V
same,Anodic peak potential Epa,[2]; [4],0.613 V
same,Cathodic peak potential Epc,[2]; [4],0.488 V
same,Half-wave potential E1/2,[2]; [4],0.550 V
same,IC50,K1,23.9 ± 0.2 nM
same,IC50,NF54,20 ± 3 nM
